Experiments:
[1] = test system: myeloproliferative neoplasms (MPNs); conditions: low dose range (5-7 mCi per intravenous injection, total up to 4 injections); cited from earlier work
[2] = in vivo; conditions: Balb/C, mouse
Method: The hydrogel was prepared, kept in a 4° C. refrigerator overnight ensuring a complete mixing, and balanced to ambient temperature prior to the administration. The molecular weight of ICG is 775 Da, which was used here as an example of small molecule. Two animal groups with different route of subcutaneous (s.c.) or intramuscular (i.m.) injection was assessed with an injection volume of 500 μl or 50 μl, respectively. The imaging was conducted for the animals immediately after hydrogel administration (within 1 minute), and then at predetermined time points of post injection.

half-life ([2]; im, 50 μl) [h] | half-life ([2]; sc, 500 μl) [h] | SMILES | tolerability and efficacy in MPNs [1]
 |  | O=[32P](O)(O)O [phosphate P-32] | well-tolerated and efficacious
~4 | ~24 | CC1(C)C(/C=C/C=C/C=C/C=C2\N(CCCCS(=O)(=O)O)c3ccc4ccccc4c3C2(C)C)=[N+](CCCCS(=O)(=O)[O-])c2ccc3ccccc3c21 [TCG, indocyanine green] | 

Reference: patent publication US20240050601A1, “COMPOSITIONS AND ASSOCIATED METHODS FOR SUSTAINED-RELEASE OF RADIOACTIVE AGENTS AND THEIR APPLICATIONS” (priority 2020, published 2024)
